Laboratory results: patent US20260167622A1, “PAN-KRAS DEGRADING AGENT, AND PREPARATION METHOD THEREFOR AND USE THEREOF” (LEADINGTAC PHARMACEUTICAL (SHAOXING) CO., LTD., priority 2022, published 2026)

What was measured:
Assay type in all cases: cell-based
[1] = target: T1, KRAS G12V protein in SW900 cells (Homo sapiens, UniProt P01116, G12V); test: KRAS degradation assay (Western Blot) in SW900 cells; settings: 24 h
T1 construct: endogenous in cells; host or cells: SW900
Source text: (§1) Test Example 5: KRAS G12C, KRAS G12D, KRAS G12V, KRAS G13D, and KRAS WT (Expanded) Degradation Assays
(§2) The degradation effect of the compounds on KRAS was investigated on KRAS G12C mutant human non-small cell lung cancer cell NCI-H358, KRAS G12D mutant human metastatic pancreatic cancer cell AsPc-1, KRAS G12D mutant human lung cancer cell A427, KRAS G12V mutant human colorectal cancer cell SW620, KRAS G12V mutant human lung cancer cell SW900, KRAS G13D mutant human colorectal cancer epithelial cell DLD-1, and KRAS WT human gastric cancer cell MKN-1. The specific procedures were as follows: 0.95 mL of cells were seeded into each well of a 24-well cell culture plate to achieve a cell density of 5×10^5 cells/well; and the cell plate was incubated in an incubator at 37° C. with 5% CO2 overnight. Then 50 μL of the compound solution after dilution was added to each of the wells with the corresponding cells, so that the final concentration of the compound was in a range of 0.03-3000 nM. The final concentration of DMSO was 0.25%. After the compounds were added, the cell plate was incubated in an incubator at 37° C. with 5% CO2 for 24 h. The culture medium in the 24-well cell culture plate was then removed, and the plate was washed twice with 1×PBS (KeyGEN). 120 μL of RIPA (strong) lysis buffer (Beyotime) (supplemented with 1 mM phenylmethylsulfonyl fluoride, a protease inhibitor mixture (Beyotime), and a protease phosphatase inhibitor mixture (Beyotime)) was added to lyse adherent SW900 cells at the bottom of the cell culture plate. After the plate was left to stand on ice for 30 min, the protein lysate in each well was transferred to a 1.5 mL centrifuge tube and centrifuged at 15000 g for 20 min at 4° C. The cell lysate supernatants after centrifugation were cryopreserved in a refrigerator at −80° C. for later use.
(§3) After the samples of the cell lysate supernatants that had been prepared were thawed from the refrigerator at −80° C., the total protein concentrations of the cell lysates were determined using a BCA protein quantification kit (Tiangen). The total protein concentrations of the samples were then adjusted to 0.5 μg/μL with PBS and 5×SDS-PAGE protein loading buffer (Beyotime), and the samples were incubated in a water bath at 100° C. for 15 min. The samples were then incubated in an ice bath for 5 min and centrifuged at 14000 g for 1 min at 4° C., and the supernatants were mixed well as loading samples for the Western Blot assay. The samples were loaded into wells of a 10% precast gel (KeyGEN) with a loading volume of 10 μL (total protein: 5 μg), a sufficient Tris-MOPS-SDS running buffer (Adamas) was added, and then electrophoresis was performed at a constant voltage of 120 V for 55 min. After the electrophoresis, the proteins on the gel were transferred to PVDF membranes at a constant current of 250 mA for 55 min. After the membrane transfer, the PVDF membranes were incubated in 1× Quick Block blocking buffer (Beyotime)at room temperature for 30 min. After the blocking, the PVDF membranes were separately incubated at 4° C. overnight with the KRAS antibody (Abcam) diluted in a ratio of 1:1000 and the β-actin antibody (Abcam) diluted in a ratio of 1:2000 in 5% BSA as the diluent, and then washed with 1×TBST buffer (2.4 g of Tris, 8.8 g of NaCl, 1.5 mL of Tween 20, with pH adjusted to 7.4, with the volume brought to 1 L) 3 times for 10 min/time. The membranes were incubated with a secondary antibody (Abcam) diluted in 5% BSA at room temperature for 2 h, and then washed with 1×TBST buffer 3 times for 10 min/time. Finally, the membranes were incubated with Clarity Western ECL Substrate (BIO-RAD) for 5 min for luminescence and color development, and a ChemiScope 6200 Touch chemiluminescence imaging system (Clinx) was used for color development and protein mapping. Gray value analysis of the protein maps was performed using the chemiluminescence analysis software (Clinx). […]

[2] = target: T2, KRAS G12V protein in SW620 cells (Homo sapiens, UniProt P01116, G12V); test: KRAS degradation assay (Western Blot) in SW620 cells; settings: for DC50: 24 h; for Dmax: SW-620, 24 h
T2 construct: endogenous in cells; host or cells: SW620
T2 sequence (P01116 1-188 isoform P01116-2 G12V): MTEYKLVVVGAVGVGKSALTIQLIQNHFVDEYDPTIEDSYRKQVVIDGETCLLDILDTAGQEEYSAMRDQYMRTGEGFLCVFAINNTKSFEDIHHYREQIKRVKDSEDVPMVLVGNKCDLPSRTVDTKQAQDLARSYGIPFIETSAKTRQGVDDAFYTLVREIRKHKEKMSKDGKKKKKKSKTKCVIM
Source text: as §1, §2, §3

[3] = system: KRAS G12D mutant human metastatic pancreatic cancer cell AsPc-1; test: 3D cell proliferation inhibition assay, AsPc-1; settings: ASPC1, 168 h, 3D culture, 7 days, CTG
Source text: (§4) Test Example 6: 3D Cell Proliferation Inhibition Assay
(§5) The inhibitory effects of the compounds on 3D cell proliferation were investigated on KRAS G12C mutant human non-small cell lung cancer cell NCI-H358, KRAS G12D mutant human lung cancer cell A427, KRAS G12D mutant human gastric cancer cell AGS, KRAS G12D mutant human metastatic pancreatic cancer cell AsPc-1, KRAS G12V mutant human lung squamous carcinoma cell SW900, KRAS G12V mutant human colorectal cancer cell SW620, KRAS G13D mutant human colorectal cancer epithelial cell DLD-1, and KRAS WT human gastric cancer cell MKN1. The specific procedures were as follows:
(§6) 10 μL of each compound solution diluted in a gradient was added to corresponding wells of a 96-well low-adsorption microplate (PerkinElmer), so that the final concentrations of the test compounds in the reaction system were in a range of 10000-0.026 nM. The final concentration of DMSO was 0.2%. Then 90 µL of cells were correspondingly seeded into each well to achieve a cell density of 5×10^2 cells/well (the cell density of SW900 was 5×10^3 cells/well, and the cell density of MKN1 was 1×10^3 cells/well). In addition to test wells for the test compounds, both a DMSO control well and a medium control well were set, with the DMSO control well containing DMSO and cells and the medium well containing only a medium. After the sample loading, the 96-well low-adsorption microplate was incubated in an incubator at 37° C. with […] for 7 days. After 7 days, the microplate was taken out, and 100 μL of CTG reagent (Promega) was added to each well. The plate was incubated at room temperature for 60 m and read on a microplate reader EnVision by the chemiluminescence program. The inhibition rates of the compounds at each concentration were calculated using the formula for the percentage inhibition of cell proliferation: inhibition rate 00=(mean value of DMSO control group−single concentration reading value of compound)/(mean value of DMSO control group−mean value of medium control group)×100. Then non-linear curve fillings for logarithmic concentration-inhibition rate were performed by GraphPad Prism 8, and the IC50 values of the compounds were obtained (Table 6).

[4] = system: KRAS G12C mutant human non-small cell lung cancer cell NCI-H358; test: 3D cell proliferation inhibition assay, NCI-H358; settings: NCI-H358, 168 h, 3D culture, 7 days, CTG
Source text: as §4, §5, §6

[5] = system: KRAS G12V mutant human colorectal cancer cell SW620; test: 3D cell proliferation inhibition assay, SW620; settings: SW-620, 168 h, 3D culture, 7 days, CTG
Source text: as §4, §5, §6

[6] = system: KRAS G13D mutant human colorectal cancer epithelial cell DLD-1; test: 3D cell proliferation inhibition assay, DLD-1; settings: DLD-1, 168 h, 3D culture, 7 days, CTG
Source text: as §4, §5, §6

T1 sequence (P01116 1-188 isoform P01116-2 G12V): as above

Row | DC50 [1] | Dmax [1] | DC50 [2] | Dmax [2] | IC50 [3] | IC50 [4] | IC50 [5] | IC50 [6] | SMILES
1 | 50 to 100 nM | 50 to 80% | – | – | – | – | – | – | C#Cc1c(F)ccc2cc(O)cc(-c3ncc4c(NC5CC5)nc(OCC5(CN6CCN(CC7CCC8(CC7)CCN(C(=O)c7ccc(OC)c(N9CCC(=O)NC9=O)c7)CC8)CC6)CC5)nc4c3F)c12 [Example 31, 1-(5-(9-((4-((1-(((4-(cyclopropylamino)-7-(8-ethynyl-7-fluoro-3-hydroxynaphthalen-1-yl)-8-fluoropyrido[4,3-d]pyrimidin-2-yl)oxy)methyl)cyclopropyl)methyl)piperazin-1-yl)methyl)-3-azaspiro[5.5]undecane-3-carbonyl)-2-methoxyphenyl)dihydropyrimidine-2,4(1H,3H)-dione]
2 | – | – | 4.25 nM | 99.1% | 60.8 nM | 24 nM | 15.4 nM | 57.5 nM | C#Cc1c(F)ccc2cc(O)cc(-c3ccc4c(N5CCC[C@@](C)(O)C5)nc(OC[C@H](C)CN5CCN(CC6CCC7(CC6)CCN(C(=O)c6ccc(OC)c(N8CCC(=O)NC8=O)c6)CC7)CC5)nc4c3F)c12 [Example 60, 1-(5-(9-((4-((R)-3-((7-(8-ethynyl-7-fluoro-3-hydroxynaphthalen-1-yl)-8-fluoro-4-((R)-3-hydroxy-3-methylpiperidin-1-yl)quinazolin-2-yl)oxy)-2-methylpropyl)piperazin-1-yl)methyl)-3-azaspiro[5.5]undecane-3-carbonyl)-2-methoxyphenyl)dihydropyrimidine-2,4(1H,3H)-dione]
3 | – | – | – | – | 523 nM | – | – | – | C#Cc1c(F)ccc2cc(O)cc(-c3ncc4c(N5CCCC(C)(N)C5)nc(OCC5(CN6CCN(CC7CCC8(CC7)CCN(C(=O)c7ccc(C)c(N9CCC(=O)NC9=O)c7)CC8)CC6)CC5)nc4c3F)c12 (stereo not shown) [Example 166, 1-(5-(9-((4-((1-(((4-(3-amino-3-methylpiperidin-1-yl)-7-(8-ethynyl-7-fluoro-3-hydroxynaphthalen-1-yl)-8-fluoropyrido[4,3-d]pyrimidin-2-yl)oxy)methyl)cyclopropyl)methyl)piperazin-1-yl)methyl)-3-azaspiro[5.5]undecane-3-carbonyl)-2-methylphenyl)dihydropyrimidine-2,4(1H,3H)-dione]
4 | – | – | 33.6 nM | 93.1% | 417 nM | 535 nM | 32.9 nM | 70.2 nM | C#Cc1c(F)ccc2cc(O)cc(-c3ncc4c(N5CCCC(F)(F)C5)nc(OC[C@H](C)CN5CCN(CC6CCC7(CC6)CCN(C(=O)c6ccc(OC)c(N8CCC(=O)NC8=O)c6)CC7)CC5)nc4c3F)c12 [Example 67, (R)-1-(5-(9-((4-(3-((4-(3,3-difluoropiperidin-1-yl)-7-(8-ethynyl-7-fluoro-3-hydroxynaphthalen-1-yl)-8-fluoropyrido[4,3-d]pyrimidin-2-yl)oxy)-2-methylpropyl)piperazin-1-yl)methyl)-3-azaspiro[5.5]undecane-3-carbonyl)-2-methoxyphenyl)dihydropyrimidine-2,4(1H,3H)-dione]
5 | – | – | 21.7 nM | 100% | 19.9 nM | 3.83 nM | 4.85 nM | 12.8 nM | C#Cc1c(F)ccc2cc(O)cc(-c3ncc4c(N5CCC[C@@](C)(O)C5)nc(OC[C@H](C)CN5CCN(CC6CCC7(CC6)CCN(C(=O)c6cc(N8CCC(=O)NC8=O)c(C)cc6F)CC7)CC5)nc4c3F)c12 [Example 162, 1-(5-(9-((4-((R)-3-((7-(8-ethynyl-7-fluoro-3-hydroxynaphthalen-1-yl)-8-fluoro-4-((R)-3-hydroxy-3-methylpiperidin-1-yl)pyrido[4,3-d]pyrimidin-2-yl)oxy)-2-methylpropyl)piperazin-1-yl)methyl)-3-azaspiro[5.5]undecane-3-carbonyl)-4-fluoro-2-methylphenyl)dihydropyrimidine-2,4(1H,3H)-dione]
6 | 100 to 500 nM | 50 to 80% | – | – | – | – | – | – | C#Cc1c(F)ccc2cc(O)cc(-c3ncc4c(N5CCC[C@@](C)(O)C5)nc(OCC5(CN6CCC(CN(C)CCC7CCN(C(=O)c8ccc(Cl)c(N9CCC(=O)NC9=O)c8)CC7)CC6)CC5)nc4c3F)c12 [Example 18, (R)-1-(2-chloro-5-(4-(2-(((1-((1-(((7-(8-ethynyl-7-fluoro-3-hydroxynaphthalen-1-yl)-8-fluoro-4-(3-hydroxy-3-methylpiperidin-1-yl)piperidino[4,3-d]pyrimidin-2-yl)oxy)methyl)cyclopropyl)methyl)piperidin-4-yl)methyl)(methyl)amino)ethyl)piperidine-1-carbonyl)phenyl)dihydropyrimidine-2,4(1H,3H)-dione]
7 | ≤ 50 nM | 50 to 80% | – | – | – | – | – | – | C#Cc1c(F)ccc2cc(O)cc(-c3ncc4c(NC(C)(C)C)nc(OCC5(CN6CCN(CC7CCC8(CC7)CCN(C(=O)c7ccc(OC)c(N9CCC(=O)NC9=O)c7)CC8)CC6)CC5)nc4c3F)c12 [Example 32, 1-(5-(9-((4-((1-(((4-(tert-butylamino)-7-(8-ethynyl-7-fluoro-3-hydroxynaphthalen-1-yl)-8-fluoropyrido[4,3-d]pyrimidin-2-yl)oxy)methyl)cyclopropyl)methyl)piperazin-1-yl)methyl)-3-azaspiro[5.5]undecane-3-carbonyl)-2-methoxyphenyl)dihydropyrimidine-2,4(1H,3H)-dione]
